# Tested on: panelists
# Assay: Strength of kokumi-imparting activity by Point of Subjective Equality (PSE), limit-determining technique
# Assay type: in vivo, human
# Conditions: from PSE
# Protocol: The intensity of the kokumi-imparting activity of γ-Glu-Abu was determined by Point of Subjective Equality (PSE) according to the limit-determining technique (“Statistical Sensory Examination techniques”, written by SATO Shin, published by Japan Federation of Science and Technology). The sensory evaluation was carried out as follows: Distilled water containing sodium glutamate (0.05 g/dL), inosine monophosphate (0.05 g/dL) and sodium chloride (0.5 g/dL) was used as the solution for the sensory evaluation. […] To determine the concentration of γ-Glu-Val at which the strength of taste is the same as that of a solution obtained by causing the solution for the sensory evaluation to contain 0.005 g/dL of γ-[…] solutions were prepared with a concentration that varied on a 50% logarithmic scale by using a solution obtained by causing the solution for the sensory evaluation, to contain 0.01 g/dL of γ-Glu-Val as a standard. The concentrations of γ-Glu-Val was set to 7 values ranging from 0.0030 to 0.0337 g/dL. After the test substance was dissolved, samples more acidic than the control with no added test substance were adjusted, before further use, with NaOH to have a pH in a range of ±0.2 as compared to the pH of the control with no added test substance. The solutions were presented to eighteen panelists in ascending order of the γ-Glu-Val concentration. The evaluation was carried out until each panelist perceived that the strength was higher than that of the 0.005 g/dL γ-Glu-Abu solution. After a certain interval, the solutions were next presented to the eighteen panelists in descending order of the γ-Glu-Val concentration. The evaluation was carried out until each panelist perceived that the strength was lower than that of the 0.005 g/dL γ-Glu-Abu solution. In this sensory evaluation, the panelists were experienced in the development of food products. When the lower and upper threshold values were the same, there was no γ-Glu-Val concentration at which the difference between the perception that the strength was lower, and the perception that the strength was higher, was uncertain. […] Each confidence threshold (average) is an average of the lower thresholds and the upper thresholds. The point of subjective equality (PSE) of γ-Glu-Val to 50 ppm (0.0050 g/dL) of γ-Glu-Abu is expressed as follows: (the sum of the confidence threshold of the lower thresholds and that of the upper threshold value)/2.
structure (smiles),measurement,value
CC[C@H](NC(=O)CC[C@H](N)C(=O)O)C(=O)O,Strength of γ-Glu-Abu relative to γ-Glu-Val,approximately 2.4 times
